The test system of one experiment is femoral artery. The experiment is described as follows: Effect on increase of blood flow, femoral artery (anesthetized dogs). The format is in vivo. The note with it: 50 μg/kg intraarterially. The procedure:
(§1) Effect on increase of blood flow was examined using dogs anesthetized with 5% pentbarbital sodium (30 mg/kg). The drugs [2-nitroxyethyl (+)-apovincaminate and 3-nitroxyl-n-propyl apovincaminate of the present invention and ethyl (+)-apovincaminate as control] were administered intraarterially in an amount of each 50 μg/kg, comparisons were made of the blood flows in the femoral artery, vertebral artery and common coronary artery before and after administration of the drugs, and the increase ratios of the blood flows were expressed by percent in Table 1.

The test system of a further experiment is vertebral artery. The experiment is described as follows: Effect on increase of blood flow, vertebral artery (anesthetized dogs). The format is in vivo. The note with it: 50 μg/kg intraarterially. On the procedure:
as §1

The test system of a further experiment is common coronary artery. The experiment is described as follows: Effect on increase of blood flow, common coronary artery (anesthetized dogs). The format is in vivo. As to conditions: 50 μg/kg intraarterially. The procedure:
as §1

Experiment [1] concerns basilar and femoral artery rings, K^+ contraction. Description: Inhibition of basilar and femoral artery contraction induced by K^+. Details: species or system Mongrel dogs. As to conditions: Canis lupus familiaris; 64 mM K^+; Krebs-Ringer, isolated dog artery rings. The procedure:
(§2) The test was carried out according to the method of Sonia Jancar et al described in European Journal of Pharmacology, vol. 136, page 345 (1987). Mongrel dogs were killed by anesthetization with pentbarvital (60 mg/kg), the brain was rapidly removed, and the basilar artery was dissected. The femoral artery was picked up at the same time. The isolated blood vessel was cut into rings 5 mm wide, which were soaked in 5 ml of a Krebs-Ringer solution under a resting tension of 1 g. The solution was kept with 95% oxygen and 5% carbon dioxide. To each of the solution in which the blood vessel rings were soaked were added 64 mM of potassium ion (K^+), 10^-5 M of norepinefurin (NE) and 10^-6 M of serotonine (5HT), respectively, and the resulting blood contractions were measured by FD pick up. To the blood vessel rings each was administered the drug [2-nitroxyethyl (+)-apovincaminate of the present invention and ethyl (+)-apovincaminate as control], and the concentrations (IC50) required to produce 50% inhibitions of the contractions by the administration of K^+, NE and 5TH, respectively, were measured.

The subject of experiment [2] is basilar and femoral artery rings, NE contraction. Description: Inhibition of basilar and femoral artery contraction induced by norepinephrine (NE). Details: species or system Mongrel dogs. The note with it: Canis lupus familiaris; 10^-5 M norepinephrine; Krebs-Ringer, isolated dog artery rings. On the procedure: as §2
In experiment [3] the test system is basilar and femoral artery rings, 5HT contraction. Description: Inhibition of basilar and femoral artery contraction induced by serotonin (5HT). Details: species or system Mongrel dogs. As to conditions: Canis lupus familiaris; 10^-6 M serotonin; Krebs-Ringer, isolated dog artery rings. On the procedure:
as §2

Experiment [4] relates to spontaneous spindle bursts (abnormal EEG pattern in aged rats). Description: Improvement of abnormalities of electroencephalogram (EEG) in aged rats. The format is in vivo, male Wistar rats. As to conditions: 10 mg/kg intraperitoneally; for Time up to which the spontaneous spindle burst reappeared: aged rats 23-24 months; for increment of the time up to which the spontaneous spindle wave reappeared versus group treated with vitamin C only: number in parentheses. The procedure: Six male Wistar rats (23-24 months old) were used for each group. The electrodes were implanted on the frontal and occipital cortexes and hippocamus, and the rats were housed for 14 days for applying to the test. The rats operated were each put into an acoustically shielded box with the minimum light amount and tamed for 60 minutes while keeping the behavior free, and then the recording of EEG was started. Thirty minutes after the starting the recording of EEG, the drug (used the same as those in Experiment 2) dissolved in 1 ml of an aqueous vitamin C solution was intraperitoneally administered in the amount of 10 mg per 1 kg of the body weight of the rat. The spontaneous spindle bursts (abnormal EEG pattern in aged rats) were disappeared after the intraperitoneal administration and reappeared after a certain time. [Neurobiology of Aging, vol. 7, page 115 (1986)]. The time up to which the spontaneous spindle burst reappeared was measured. Group which received 10% aqueous vitamin C solution only was tested for comparison. Number in parentheses means the increment of the time (minutes) up to which the spontaneous spindle wave reappeared after the drug administration when compared with that of the group treated with vitamin C only.

On to `CC[C@@]12C=C(C(=O)OCCCO[N+](=O)[O-])n3c4c(c5ccccc53)CCN(CCC1)[C@H]42` [3-Nitroxy-n-propyl (+)-apovincaminate], for which, in the experiment on femoral artery, the “Increase of blood flow, Femoral artery” value turned out to be 28.2%. Further, the “Increase of blood flow, Bertebral artery” value in the experiment with vertebral artery is given as 45.7%. In addition, the “Increase of blood flow, Common coronary artery” value in the experiment on common coronary artery was determined as 44.3%.
Take `CC[C@@]12C=C(C(=O)OCCO[N+](=O)[O-])n3c4c(c5ccccc53)CCN(CCC1)[C@H]42` [Drug A, 2-nitroxyethyl (+)-apovincaminate]: in the experiment with femoral artery, the “Increase of blood flow, Femoral artery” value worked out at 86.8%. The “Increase of blood flow, Bertebral artery” value with vertebral artery came to 72.3%. Besides, the IC50 in experiment [1] was 1170 nM; in experiment [2], 22.3 µM; in experiment [3], 6.02 µM. Besides, the “Increase of blood flow, Common coronary artery” value with common coronary artery is listed as 71.1%. For the same compound, the “activity relative to drug B (control) in terms of the increment of the time up to which the spontaneous spindle burst reappeared” value in experiment [4] (aged rats) is listed as “about 3 times”. The “Time up to which the spontaneous spindle burst reappeared” value in experiment [4] is on record as 41 min. Moreover, the “increment of the time up to which the spontaneous spindle wave reappeared versus group treated with vitamin C only” value in experiment [4] (aged rats) was 31 min.
Consider `CCOC(=O)C1=C[C@]2(CC)CCCN3CCc4c(n1c1ccccc41)[C@@H]32` [Drug B, Ethyl (+)-apovincaminate, reference compound], for which the “Increase of blood flow, Femoral artery” value in the experiment with femoral artery was found to be 14.8%. In addition, the “Increase of blood flow, Bertebral artery” value with vertebral artery was determined as 21.8%. The figures for the half-maximal inhibitory concentration (IC50) in experiment [1], in experiment [2] and in experiment [3] were 2500 nM, 63.1 µM and 100 µM, respectively. Further, in the experiment with common coronary artery, the “Increase of blood flow, Common coronary artery” value was 15.5%. The “Time up to which the spontaneous spindle burst reappeared” value in experiment [4] came to 21 min. Further, the “increment of the time up to which the spontaneous spindle wave reappeared versus group treated with vitamin C only” value in experiment [4] (aged rats) amounted to 11 min.

The record behind these values is patent US4980474A, “Apovincaminic acid derivatives” (Taisho Pharmaceutical Co., Ltd., priority 1988, dated 1990).
